The nature of series [1]: Metabolic stability in liver microsome (human). The format is in vitro ADME, humans. How it is done: (§1) Objective: To determine the metabolic stability of test compounds in the liver microsomes of humans, CD-1 5 mice and SD rats (Corning Co., Ltd., Miaotong Biological Technology Co., Ltd., Miaotong Biological Technology Co., Ltd.).
(§2) Procedures: Firstly, eight 96-well plates were prepared, and named T0, T5, T10, T20, T30, T60, NCF60 and BLANK; except for BLANK (added with buffer at 10 μL/well), the plates were added with the solution of compounds at 10 μL/well. Prepared microsomes were added to the 7 plates (80 μL/well), except for the T0 10 plate. The NCF60 plate was added with the buffer at 10 μL/well, and incubated in a 37° C. water bath, and timing was started:
(§3) Prepared NADPH cofactor working solution was aliquoted into a 96-well shallow-well plate serving as a loading slot. Each plates was added with the solution to at 10 μL/well by a 96-channel pipette and incubated in a 37° C. water bath to start the reaction:
(§4) At each time point, termination solution (cold acetonitrile containing 100 ng/mL Tolbutamide and 100 ng/mL Labetalol as internal standard) was added at 300 μL/well to stop the reaction, and the mixture was mixed well; the mixture was centrifuged at 4000 rpm for 20 minutes to precipitate the protein; the supernatant was transferred at 100 μL/well to a new 96-well plate containing 300 μL/well of HPLC water with a 96-channel pipette, and the mixture was mixed well. […]
In general terms: Liver microsomes are a subcellular fraction often used to study metabolism.

Series [2] is described as follows: Metabolic stability in liver microsome (CD-1 mouse). In kind it is in vitro ADME, CD-1 mice. How it is done:
as §1, §2, §3, §4

Another series deals with T1, CYP2C9 (Homo sapiens, UniProt P11712).
T1 construct: tissue Corning Co., Ltd; host or cells: human liver microsomes
T1 sequence (P11712 whole entry): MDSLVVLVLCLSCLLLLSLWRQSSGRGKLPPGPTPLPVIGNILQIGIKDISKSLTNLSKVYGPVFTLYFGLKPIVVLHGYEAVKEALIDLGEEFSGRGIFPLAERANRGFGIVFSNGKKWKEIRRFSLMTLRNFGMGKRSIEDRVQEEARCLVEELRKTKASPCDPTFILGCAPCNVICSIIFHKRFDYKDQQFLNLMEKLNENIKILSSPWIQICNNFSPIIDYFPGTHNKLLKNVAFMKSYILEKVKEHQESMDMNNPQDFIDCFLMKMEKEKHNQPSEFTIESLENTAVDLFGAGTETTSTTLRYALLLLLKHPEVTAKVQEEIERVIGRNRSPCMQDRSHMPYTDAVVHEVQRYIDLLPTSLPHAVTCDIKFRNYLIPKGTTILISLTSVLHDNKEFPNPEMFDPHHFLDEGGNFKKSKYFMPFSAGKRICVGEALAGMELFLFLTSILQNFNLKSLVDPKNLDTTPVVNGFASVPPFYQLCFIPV
Kind of series: Cytochrome P450 isoenzyme inhibition, CYP2C9. In kind it is in vitro ADME. The conditions noted are these: human liver microsomes; read-out: CYP enzyme inhibition (IC50) 2C9. An excerpt: (§5) Experimental objective: To determine the inhibitory effect of the test compound on the activity of human liver microsomal cytochrome P450 isoenzymes (CYP1A2, CYP2C9, CYP2C19, CYP2D6 and CYP3A4; Corning Co., Ltd.). […]

The target in another series is T2, CYP2C19 (Homo sapiens, UniProt P33261).
T2 construct: tissue Corning Co., Ltd; host or cells: human liver microsomes
T2 sequence (P33261 whole entry): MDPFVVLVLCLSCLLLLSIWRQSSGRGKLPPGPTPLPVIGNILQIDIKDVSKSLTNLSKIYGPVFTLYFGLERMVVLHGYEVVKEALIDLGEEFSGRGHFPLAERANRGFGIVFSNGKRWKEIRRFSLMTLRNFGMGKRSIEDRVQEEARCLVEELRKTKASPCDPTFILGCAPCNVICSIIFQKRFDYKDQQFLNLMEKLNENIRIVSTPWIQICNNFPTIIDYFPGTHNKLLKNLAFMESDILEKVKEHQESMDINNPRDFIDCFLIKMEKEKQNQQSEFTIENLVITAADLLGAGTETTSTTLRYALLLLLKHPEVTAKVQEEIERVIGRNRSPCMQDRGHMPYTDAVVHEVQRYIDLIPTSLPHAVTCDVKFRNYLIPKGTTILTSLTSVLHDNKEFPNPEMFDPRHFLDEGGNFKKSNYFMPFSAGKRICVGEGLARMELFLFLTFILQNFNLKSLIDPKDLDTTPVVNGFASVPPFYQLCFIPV
The series can be described thus: Cytochrome P450 isoenzyme inhibition, CYP2C19. In kind it is in vitro ADME. The conditions noted are these: human liver microsomes; read-out: CYP enzyme inhibition (IC50) 2C19.
Description: as §5

The target of another series is T3, CYP2D6 (Homo sapiens, UniProt P10635).
T3 construct: tissue Corning Co., Ltd; host or cells: human liver microsomes
T3 sequence (P10635 whole entry): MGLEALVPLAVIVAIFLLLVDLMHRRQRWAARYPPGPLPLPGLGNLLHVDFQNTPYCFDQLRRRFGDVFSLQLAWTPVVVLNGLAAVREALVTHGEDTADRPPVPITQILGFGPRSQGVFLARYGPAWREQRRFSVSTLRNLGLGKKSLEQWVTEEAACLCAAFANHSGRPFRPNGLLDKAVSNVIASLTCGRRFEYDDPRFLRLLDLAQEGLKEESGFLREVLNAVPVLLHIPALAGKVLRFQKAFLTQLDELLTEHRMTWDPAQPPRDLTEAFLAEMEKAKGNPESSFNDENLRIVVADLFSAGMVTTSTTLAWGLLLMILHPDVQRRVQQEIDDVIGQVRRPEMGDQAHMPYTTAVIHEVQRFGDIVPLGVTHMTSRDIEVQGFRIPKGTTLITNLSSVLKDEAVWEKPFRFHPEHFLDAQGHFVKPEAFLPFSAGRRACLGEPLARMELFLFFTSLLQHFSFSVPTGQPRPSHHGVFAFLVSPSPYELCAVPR
The series can be described thus: Cytochrome P450 isoenzyme inhibition, CYP2D6. In kind it is in vitro ADME. The conditions noted are these: human liver microsomes; read-out: CYP enzyme inhibition (IC50) 2D6.
Description: as §5

A further series concerns the target T4, CYP3A4 (Homo sapiens, UniProt P08684).
T4 construct: tissue Corning Co., Ltd; host or cells: human liver microsomes
Kind of series: Cytochrome P450 isoenzyme inhibition, CYP3A4. The format is in vitro ADME. The conditions noted are these: human liver microsomes; read-out: CYP enzyme inhibition (IC50) 3A4.
Description: as §5

A short description of series [3]: Pharmacokinetics study in rats (cassette). In kind it is in vivo. The conditions noted are these: female, SD, plasma, rat cassette PK. An excerpt: Experimental objective: To determine the drug concentration in the plasma of the rats at different times after intravenous and oral administration of the test compounds by LC/MS/MS using female SD rats as the test animals. To investigate the pharmacokinetic performance of the test compounds in rats and to evaluate the pharmacokinetic characteristics.
Test animals: 4 healthy female SD rats were divided into 2 groups according to according to the principle of similar weight, 2 in the IV group and 2 in the PO group. Animal used in this study were purchased from Beijing Vital River Laboratory Animal Technology Co., Ltd.
IV group: Appropriate amounts of compounds were weighed respectively, prepared into 2 mg/mL solutions, then mixed to give a 0.5 mg/mL solution, which was stirred and ultrasonicated until a clear state. The vehicle was 15% HP-b-CD.
PO group: An appropriate amount of the IV group solution was taken and diluted to 0.4 mg/mL with 15% HP-b-CD.
Administration: After fasting overnight, the IV group was administered intravenously, and the dose of the test compound was 1 mg/kg; the PO group was administered intragastrically, and the dose of the test compound was 2 mg/kg.
Procedures: For IV group, 200 μL of blood was collected from the jugular vein of the female SD rats at 0.0833, 0.25, 0.5, 1, 2, 4, 8, and 24 hours post-dose, and placed in a commercial anticoagulant tube with EDTA-K2 added in advance. For PO group, 200 μL of blood was collected from the jugular vein of the female SD rats at 0.25, 0.5, 1, 2, 4, 8, 12 and 24 hours post-dose, and placed in a commercial anticoagulant tube with EDTA-K2 added in advance. The blood samples were centrifuged (3,200 g, 4° C., 10 minutes) to give plasma samples, which was transferred to a pre-cooled centrifuge tube, frozen in dry ice, and stored in an ultra-low temperature freezer at −60° C. or lower until the LC-MS/MS analysis. The animals were given free access to food 4 hours after the administration. LC/MS/MS method was used to determine the content of the test compounds in the plasma of […] after intravenous and oral administration. The linear range of the method is 2.00-2000 nM.

Where a name gives a salt, the structure may show the parent alone.

T4 sequence (P08684 whole entry): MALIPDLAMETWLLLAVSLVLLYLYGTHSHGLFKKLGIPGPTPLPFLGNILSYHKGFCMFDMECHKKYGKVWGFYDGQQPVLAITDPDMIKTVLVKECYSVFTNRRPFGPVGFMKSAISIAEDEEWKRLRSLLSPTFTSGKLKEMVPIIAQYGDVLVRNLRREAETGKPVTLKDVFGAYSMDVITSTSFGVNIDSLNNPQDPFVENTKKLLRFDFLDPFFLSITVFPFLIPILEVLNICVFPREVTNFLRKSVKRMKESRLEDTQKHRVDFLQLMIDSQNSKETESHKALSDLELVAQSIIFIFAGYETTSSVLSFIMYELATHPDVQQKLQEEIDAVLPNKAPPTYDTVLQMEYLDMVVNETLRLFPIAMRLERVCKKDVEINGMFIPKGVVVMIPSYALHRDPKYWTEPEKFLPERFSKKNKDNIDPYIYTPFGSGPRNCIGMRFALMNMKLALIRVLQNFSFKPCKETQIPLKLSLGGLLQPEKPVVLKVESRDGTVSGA

`CC/C(=C(/c1ccc(OCCNC/C=C/C(=O)N(C)C)nc1)c1[nH]c2ccccc2c1Cl)c1ccccc1` [Compound 3 monohydrochloride]: the “Stability in liver microsomes” value in series [1] and in series [2] was 43 throughout. In addition, the IC50 at CYP2C9 turned out to be 8.4 µM; at CYP2C19, 3.9 µM; on CYP2D6, 25.6 µM; on CYP3A4 it was 9.8 µM. The AUC(0-t) in series [3] (iv, i.v. 1 mg/kg) worked out at 3.55 µM·h; in series [3] (po, p.o. 2 mg/kg) it was 5.21 µM·h. The molecule also gave a clearance in series [3] (iv, i.v. 1 mg/kg) of 8.14 mL/min/kg. The same molecule gave a half-life in series [3] (iv, i.v. 1 mg/kg) of 6.65 h. For the same molecule, the Vd in series [3] (iv, i.v. 1 mg/kg, read-out: Vdss) stood at 4.46 L/kg. For the same molecule, the Cmax in series [3] (po, p.o. 2 mg/kg) was 464 nM. In addition, the Tmax in series [3] (po, p.o. 2 mg/kg) was 2 h. Further, the bioavailability in series [3] (po, p.o. 2 mg/kg) is 73.3%.

Broadly, the IC50 is the concentration that gives 50% inhibition. Usually AUC(0-t) stands for exposure summed from dosing to a finite time, without extrapolation to infinity. Lower therefore signals less exposure. By clearance is commonly meant a measure of how efficiently the substance is removed, as volume per time. High values mean a high capacity for elimination, low ones a low capacity for elimination. As usually defined, the half-life is the time in which the quantity being followed falls by half. Read a high half-life as slow loss. By Cmax is commonly meant the maximum level reached in the sampled fluid or tissue. For orientation: Tmax means the time at which the peak concentration occurs. By bioavailability is commonly meant the share of a dose that reaches the circulation, judged against a reference dose that is usually intravenous. Higher therefore signals much systemic uptake.
